Earlier results as cited in article PMC7309225, “Synthesis, Biodistribution, and Radiation Dosimetry of a Novel mGluR5 Radioligand: ^18F-AZD9272” (ACS Chemical Neuroscience, 2020).
Where two headings read alike, the source gives them in different places.

Columns and labels:
[1] = tested on: mGluR5; parameters: method as in PMID 29608920; conditions: 2TC, cited from earlier work
[2] = tested on: monoamine oxidase-B (MAO-B); parameters: method as in PMID 23541825; conditions: human brain stem, thalamus, amygdala, cerebellum, and ventral striatum; cited from earlier work

Which results are given for `N#Cc1cc(F)cc(-c2nc(-c3ccc(F)cn3)no2)c1` [^11C-AZD9272]?
VT ([1]; occipital cortex): 6.5 mL/cm^3; VT ([1]; ventral striatum): 18.0 mL/cm^3; MAO-B component of binding [2]: 90–95%
